Results published in patent US20070238671A1, “Isopeptide Gap Junction Modulators” (priority 2003, published 2007).

How the values were obtained:
[1] = system: human osteoblast cells; experiment: Standard tumor promoter assay: Lucifer Yellow dye transfer, DDT-induced uncoupling; type: cell-based; conditions: DDT 13 μM for 60 minutes, n=13; control without DDT median 14.5 cells
Text: The compound 1,1-bis(p-chlorophenyl)-2,2,2-trichlorethane, also known as the insecticide DDT, is an inhibitor of gap junctional communication, and has tumor promoting abilities. It inhibits cell-to-cell communication by reducing the gap junction number and size, and exposure to DDT is associated with decreased cellular levels of phosphorylated (active) forms of the gap junction protein Cx43. These actions are considered pivotal for the compound's oncogenic properties (X. Guan, et al. (1996) Carcinogenesis, 17 1791-1798; R. J. Ruch, et al. (1994) Carcinogenesis, 15 301-306); B. V. Madhukar, et al. (1996) Cancer Lett. 106 117-123). As a means of monitoring the therapeutic efficacy of the isopeptides, the effects of the isopeptides on DDT-induced uncoupling in human osteoblast cells can be determined. […]
After harvesting, the mononuclear fraction is washed once with culture medium and centrifuged at 1800 rpm for 10 minutes. Subsequently cells are counted and plated in culture medium at 8×10^6 cells/100 mm dish. […]
After culturing, cells are affixed to a PDMI-2 culture chamber (Medical Systems Corp.), maintained at 37° C. with superfused CO2, on a Zeiss Axiovert microscope. […] A cell in the monolayer is carefully injected with LY for 30 seconds; the micropipette is removed from the cell and after 30 seconds the number of cells that show dye transfer is counted. […]

[2] = system: calcium-induced arrhythmias; experiment: Calcium-induced arrhythmia model (Lynch et al.) in mice; type: in vivo, Male NMRI mice; conditions: isopeptide 1 nmol/kg i.v. 3 min before CaCl2 infusion; (tarr(testcompound)-tarr(vehicle))x100/tarr(vehicle), time lag to first conduction block
Protocol: Isopeptides suitable for administration to cardiac cells can be identified in an in vivo model of calcium-induced arrhythmias according to the model of Lynch et al. (1981) J Cardiovasc. Pharmacol. 3: 49-60. Mice (25-30 g) are anaesthetized with a neurolept anaesthetic combination and an i.v. cannula is inserted into the tail vein. A lead II ECG signal is recorded continuously by positioning a stainless steel ECG electrodes on the right forelimb and on the left hind limb. The ground electrode is placed on the right hind limb. The signal is amplified (x 5.000-10.000) and filtered (0.1-150 Hz) via a Hugo Sachs Electronic model 689 ECG module. The analog signal is digitized via a 12 bit data acquisition board (Data Translation model DT321) and sampled at 1000 Hz using the Notocord HEM 3.1 software for Windows NT. After a 10-minute equilibration period, the test sample of peptide is injected into the tail vein. Mice pre-treated with buffer are tested as a measure of the control level in untreated animals. The injection volume is 100 μl in all experiments.
Infusion of CaCl2 (30 mg/ml, 0.1 ml/min≈100 mg/kg/min (calcium chloride-2-hydrate, Riedel-de Haën, Germany)) is started 3 min after i.v. administration of drug or vehicle. The time lag to onset of 2nd degree AV-block is determined as the time from the start of CaCl2 infusion until the first arrhythmic event occurs. An event of 2nd degree AV-block is defined as intermittent failure of the AV conduction characterised by a P-wave without the concomitant QRS complex.
Responses are expressed relative to the time until 2nd degree AV-block occurred in vehicle treated mice. The maximal effect of compounds (e.g., isopeptides, AAP, AAP10 or controls) is determined. […]
An intravenous cannula was inserted into the tail vein. The lead II ECG signal was recorded continuously by positioning of stainless steel ECG electrodes on the right forelimb and on the left hind limb. […]

Compound	number of cells that show dye transfer (median) [1]	% response [2] [%]
Clc1ccc(C(c2ccc(Cl)cc2)C(Cl)(Cl)Cl)cc1 [DDT, 1,1-bis(p-chlorophenyl)-2,2,2-trichlorethane]	7	
H-Gly-iso-D-Lys(4-methoxybenzoyl)-OH [Compound 18]		16
H-Gly-iso-D-Lys(4-nitrobenzoyl)-OH [Compound 19]		33
H-iso-Gln(NH(4-methoxybenzyl))-Ala-OH [Compound 101]		68
H-iso-Gln(NH(4-methoxybenzyl))-D-Ala-OH [Compound 116]		25
